One assay has as its target Human β2 adrenoceptor (Homo sapiens, UniProt P07550). The following applies: read-out: B2 binding affinity.
A further assay has as its target Human M3 receptor (Homo sapiens, UniProt P20309). The following applies: read-out: M3 binding affinity.

“And” between values parts separate entries of the source, which are not always exact repeats. Identical values can stand only once.

Human β2 adrenoceptor, sequence (P07550 whole entry): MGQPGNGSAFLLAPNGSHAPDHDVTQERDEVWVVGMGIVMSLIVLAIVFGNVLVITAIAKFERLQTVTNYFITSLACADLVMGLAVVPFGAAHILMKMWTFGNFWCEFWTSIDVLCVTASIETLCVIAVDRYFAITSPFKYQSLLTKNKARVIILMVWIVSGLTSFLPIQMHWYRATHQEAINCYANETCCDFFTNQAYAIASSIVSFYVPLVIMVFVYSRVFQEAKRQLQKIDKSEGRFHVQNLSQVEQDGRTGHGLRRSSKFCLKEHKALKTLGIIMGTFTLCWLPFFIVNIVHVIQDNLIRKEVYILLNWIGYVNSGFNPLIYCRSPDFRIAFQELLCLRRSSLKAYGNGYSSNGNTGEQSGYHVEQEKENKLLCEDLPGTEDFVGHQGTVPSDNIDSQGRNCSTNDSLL
Human M3 receptor, sequence (P20309 whole entry): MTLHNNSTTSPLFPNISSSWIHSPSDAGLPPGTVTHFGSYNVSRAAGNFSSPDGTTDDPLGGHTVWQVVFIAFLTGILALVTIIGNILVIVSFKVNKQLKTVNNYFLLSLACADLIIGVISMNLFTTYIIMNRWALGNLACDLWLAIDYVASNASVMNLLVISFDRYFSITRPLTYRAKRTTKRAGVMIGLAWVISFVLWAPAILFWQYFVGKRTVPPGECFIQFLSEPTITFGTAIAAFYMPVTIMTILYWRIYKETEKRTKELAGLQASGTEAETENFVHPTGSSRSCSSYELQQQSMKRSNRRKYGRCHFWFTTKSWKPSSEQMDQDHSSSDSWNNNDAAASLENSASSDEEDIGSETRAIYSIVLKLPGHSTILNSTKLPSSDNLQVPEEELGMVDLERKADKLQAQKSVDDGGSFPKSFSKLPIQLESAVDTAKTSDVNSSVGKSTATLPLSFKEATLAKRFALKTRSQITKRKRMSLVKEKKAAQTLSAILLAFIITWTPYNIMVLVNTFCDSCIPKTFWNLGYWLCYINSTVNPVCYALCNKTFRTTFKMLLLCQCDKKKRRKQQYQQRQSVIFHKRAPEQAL

Consider `CN(CCNC(=O)c1ccc(CCNC[C@H](O)c2ccc(O)c3[nH]c(=O)ccc23)cc1)C(=O)COc1cccc([C@](O)(C(=O)OCC2CCN(Cc3ccccc3)CC2)c2ccccc2)c1` [Compound 84, (1-benzylpiperidin-4-yl)methyl (S)-2-hydroxy-2-(3-(2-((2-(4-(2-(((R)-2-hydroxy-2-(8-hydroxy-2-oxo-1,2-dihydroquinolin-5-yl)ethyl)amino)ethyl)benzamido)ethyl)(methyl)amino)-2-oxoethoxy)phenyl)-2-phenylacetate], for which the results for the IC50 on Human β2 adrenoceptor and on Human M3 receptor were 0.3 to 3 nM and greater than 3 nM, respectively.
The like results for `O=C(COc1cccc([C@](O)(C(=O)OCC2CCN(Cc3ccccc3)CC2)c2ccccc2)c1)NCC1CCN(C(=O)c2ccc(CCNC[C@H](O)c3ccc(O)c4[nH]c(=O)ccc34)cc2)CC1` [Compound 97, (1-benzylpiperidin-4-yl)methyl (S)-2-hydroxy-2-(3-(2-(((1-(4-(2-(((R)-2-hydroxy-2-(8-hydroxy-2-oxo-1,2-dihydroquinolin-5-yl)ethyl)amino)ethyl)benzoyl)piperidin-4-yl)methyl)amino)-2-oxoethoxy)phenyl)-2-phenylacetate] were, in that order, less than 0.3 nM and 0.3 to 3 nM.
On the same counts, the results for `O=C(NCCOc1cccc([C@](O)(C(=O)OCC2CCN(Cc3ccccc3)CC2)c2ccccc2)c1)c1ccc(CCNC[C@H](O)c2ccc(O)c3[nH]c(=O)ccc23)cc1` [Compound 38, (S)-(1-benzylpiperidin-4-yl)methyl 2-hydroxy-2-(3-(2-(4-(2-(((R)-2-hydroxy-2-(8-hydroxy-2-oxo-1,2-dihydroquinolin-5-yl)ethyl)amino)ethyl)benzamido)ethoxy)phenyl)-2-phenylacetate] are less than 0.3 nM and less than 0.3 nM.
The like results for `O=C(OCC1CCN(Cc2ccccc2)CC1)C(O)(c1ccccc1)c1ccc(OCCCCCNC[C@H](O)c2ccc(O)c3[nH]c(=O)ccc23)cc1` (stereo partly drawn) [Compound 51, (1-benzylpiperidin-4-yl)methyl 2-hydroxy-2-(4-((5-(((R)-2-hydroxy-2-(8-hydroxy-2-oxo-1,2-dihydroquinolin-5-yl)ethyl)amino)pentyl)oxy)phenyl)-2-phenylacetate diformate] were, in that order, less than 0.3 nM and 0.3 to 3 nM.
As for `COc1cc(NC(=O)COc2cccc([C@](O)(C(=O)OCC3CCN(Cc4ccccc4)CC3)c3ccccc3)c2)c(F)cc1CNC[C@H](O)c1ccc(O)c2[nH]c(=O)ccc12` [Compound 42B, (1-benzylpiperidin-4-yl)methyl (S)-2-(3-(2-((2-fluoro-4-((((R)-2-hydroxy-2-(8-hydroxy-2-oxo-1,2-dihydroquinolin-5-yl)ethyl)amino)methyl)-5-methoxyphenyl)amino)-2-oxoethoxy)phenyl)-2-hydroxy-2-phenylacetate], the IC50 on Human β2 adrenoceptor was less than 0.3 nM; at Human M3 receptor, < 0.3 nM and 0.3 to 3 nM.
For `O=C(c1ccc(CCNC[C@H](O)c2ccc(O)c3[nH]c(=O)ccc23)cc1)N1CC2(C1)CN(C(=O)c1ccc(COc3cccc([C@](O)(C(=O)OCC4CCN(Cc5ccccc5)CC4)c4ccccc4)c3)cc1)C2` [Compound 116, (1-benzylpiperidin-4-yl)methyl (S)-2-hydroxy-2-(3-((4-(6-(4-(2-(((R)-2-hydroxy-2-(8-hydroxy-2-oxo-1,2-dihydroquinolin-5-yl)ethyl)amino)ethyl)benzoyl)-2,6-diazaspiro[3.3]heptane-2-carbonyl)benzyl)oxy)phenyl)-2-phenylacetate], the results for the IC50 at Human β2 adrenoceptor and at Human M3 receptor were less than 0.3 nM and 0.3 to 3 nM, respectively.
With `O=C(COc1cccc([C@](O)(C(=O)OCC2CCN(Cc3ccccc3)CC2)c2ccccc2)c1)N1CC2(CCCN(C(=O)c3ccc(CCNC[C@H](O)c4ccc(O)c5[nH]c(=O)ccc45)cc3)C2)C1` [Compound 98, (1-benzylpiperidin-4-yl)methyl (S)-2-hydroxy-2-(3-(2-(6-(4-(2-(((R)-2-hydroxy-2-(8-hydroxy-2-oxo-1,2-dihydroquinolin-5-yl)ethyl)amino)ethyl)benzoyl)-2,6-diazaspiro[3.5]nonan-2-yl)-2-oxoethoxy)phenyl)-2-phenylacetate], the IC50 at Human β2 adrenoceptor and at Human M3 receptor was 0.3 to 3 nM throughout.
Turning to `O=C(c1ccc(COc2cccc([C@](O)(C(=O)OCC3CCN(Cc4ccccc4)CC3)c3ccccc3)c2)cc1)N1CCC(CNC[C@H](O)c2ccc(O)c3[nH]c(=O)ccc23)CC1` [Compound 33, (S)-(1-benzylpiperidin-4-yl)methyl 2-hydroxy-2-(3-((4-(4-((((R)-2-hydroxy-2-(8-hydroxy-2-oxo-1,2-dihydroquinolin-5-yl)ethyl)amino)methyl)-piperidine-1-carbonyl)benzyl)oxy)phenyl)-2-phenylacetate], the IC50 at Human β2 adrenoceptor and on Human M3 receptor was less than 0.3 nM in each case.
`Cc1cccc(C(O)(C(=O)OCC2CCN(Cc3ccccc3)CC2)c2cccc(OCCCCCNC[C@H](O)c3ccc(O)c4[nH]c(=O)ccc34)c2)c1` (stereo partly drawn) [Compound 5, (1-benzylpiperidin-4-yl)methyl 2-hydroxy-2-(3-((5-(((R)-2-hydroxy-2-(8-hydroxy-2-oxo-1,2-dihydroquinolin-5-yl)ethyl)amino)pentyl)oxy)phenyl)-2-(m-tolyl)acetate]: the IC50 on Human β2 adrenoceptor and on Human M3 receptor was 0.3 to 3 nM in each case.
For the compound `O=C(c1ccc(CCNC[C@H](O)c2ccc(O)c3[nH]c(=O)ccc23)cc1)N1CCC2(CC1)CN(C(=O)c1ccc(COc3cccc([C@](O)(C(=O)OCC4CCN(Cc5ccccc5)CC4)c4ccccc4)c3)cc1)C2` [Compound 117, (1-benzylpiperidin-4-yl)methyl (S)-2-hydroxy-2-(3-((4-(7-(4-(2-(((R)-2-hydroxy-2-(8-hydroxy-2-oxo-1,2-dihydroquinolin-5-yl)ethyl)amino)ethyl)benzoyl)-2,7-diazaspiro[3.5]nonane-2-carbonyl)benzyl)oxy)phenyl)-2-phenylacetate], the values for the IC50 at Human β2 adrenoceptor and on Human M3 receptor were less than 0.3 nM and 0.3 to 3 nM, respectively.
On the same counts, the results for `COc1cc(NC(=O)COc2cccc([C@](O)(C(=O)OCC3CCN(Cc4ccccc4)CC3)c3ccccc3)c2)ccc1CNC[C@H](O)c1ccc(O)c2[nH]c(=O)ccc12` [Compound 42A, (S)-(1-benzylpiperidin-4-yl)methyl 2-hydroxy-2-(3-(2-((4-((((R)-2-hydroxy-2-(8-hydroxy-2-oxo-1,2-dihydroquinolin-5-yl)ethyl)amino)methyl)-3-methoxyphenyl)amino)-2-oxoethoxy)phenyl)-2-phenylacetate] are 0.3 to 3 nM and less than 0.3 nM.
Consider `O=C(NCCCOc1cccc([C@](O)(C(=O)OCC2CCN(Cc3ccccc3)CC2)c2ccccc2)c1)c1ccc(CNC[C@H](O)c2ccc(O)c3[nH]c(=O)ccc23)c(OC(F)(F)F)c1` [Compound 32E, (S)-(1-benzylpiperidin-4-yl)methyl 2-hydroxy-2-(3-(3-(4-((((R)-2-hydroxy-2-(8-hydroxy-2-oxo-1,2-dihydroquinolin-5-yl)ethyl)amino)methyl)-3-(trifluoromethoxy)benzamido)propoxy)phenyl)-2-phenylacetate], for which the IC50 on Human β2 adrenoceptor and at Human M3 receptor was 0.3 to 3 nM each time.
In the case of `O=C(c1ccc(CCNC[C@H](O)c2ccc(O)c3[nH]c(=O)ccc23)cc1)N1CCC(C(=O)N2CCC(COc3cccc([C@](O)(C(=O)OCC4CCN(Cc5ccccc5)CC4)c4ccccc4)c3)CC2)CC1` [Compound 151, (1-Benzylpiperidin-4-yl)methyl (S)-2-hydroxy-2-(3-((1-(1-(4-(2-(((R)-2-hydroxy-2-(8-hydroxy-2-oxo-1,2-dihydroquinolin-5-yl)ethyl)amino)ethyl)benzoyl)piperidine-4-carbonyl)piperidin-4-yl)methoxy)phenyl)-2-phenylacetate], the IC50 on Human β2 adrenoceptor and on Human M3 receptor was less than 0.3 nM throughout.
For `O=C(OCC1CCN(Cc2ccccc2)CC1)C(O)(c1cccc(F)c1)c1cccc(OCCCCCNC[C@H](O)c2ccc(O)c3[nH]c(=O)ccc23)c1` (stereo partly drawn) [Compound 4, (1-benzylpiperidin-4-yl)methyl 2-(3-fluorophenyl)-2-hydroxy-2-(3-((5-(((R)-2-hydroxy-2-(8-hydroxy-2-oxo-1,2-dihydroquinolin-5-yl)ethyl)amino)pentyl)oxy)phenyl)acetate], the IC50 was less than 0.3 nM on Human β2 adrenoceptor and 0.3 to 3 nM on Human M3 receptor.
Take `O=C(COc1cccc([C@](O)(C(=O)OCC2CCN(Cc3ccccc3)CC2)c2ccccc2)c1)N1CCC2(CC1)CCN(C(=O)c1ccc(CNC[C@H](O)c3ccc(O)c4[nH]c(=O)ccc34)cc1)CC2` [Compound 64, (1-benzylpiperidin-4-yl)methyl (S)-2-hydroxy-2-(3-(2-(9-(4-((((R)-2-hydroxy-2-(8-hydroxy-2-oxo-1,2-dihydroquinolin-5-yl)ethyl)amino)methyl)benzoyl)-3,9-diazaspiro[5.5]undecan-3-yl)-2-oxoethoxy)phenyl)-2-phenylacetate]: the IC50 on Human β2 adrenoceptor is 0.3 to 3 nM; at Human M3 receptor, less than 0.3 nM.
On the same counts, the results for `O=C1C=Cc2c([C@@H](O)CNCCC3CCN(C(=O)c4ccc(COc5cccc([C@](O)(C(=O)OCC6CCN(Cc7ccccc7)CC6)c6ccccc6)c5)cc4)CC3)ccc(O)c2C1` [Compound 33A, (1-benzylpiperidin-4-yl)methyl (S)-2-hydroxy-2-(3-((4-(4-(2-(((R)-2-hydroxy-2-(4-hydroxy-6-oxo-5,6-dihydronaphthalen-1-yl)ethyl)amino)ethyl)piperidine-1-carbonyl)benzyl)oxy)phenyl)-2-phenylacetate] are less than 0.3 nM and 0.3 to 3 nM.
As to `O=C(N[C@H]1CCN(C(=O)COc2cccc([C@](O)(C(=O)OCC3CCN(Cc4ccccc4)CC3)c3ccccc3)c2)C1)c1ccc(CCNC[C@H](O)c2ccc(O)c3[nH]c(=O)ccc23)cc1` [Compound 109, (1-benzylpiperidin-4-yl)methyl (S)-2-hydroxy-2-(3-(2-((S)-3-(4-(2-(((R)-2-hydroxy-2-(8-hydroxy-2-oxo-1,2-dihydroquinolin-5-yl)ethyl)amino)ethyl)benzamido)pyrrolidin-1-yl)-2-oxoethoxy)phenyl)-2-phenylacetate], the IC50 on Human β2 adrenoceptor and at Human M3 receptor was 0.3 to 3 nM in each case.

The values above are taken from US9579314B2 (priority 2015, dated 2017).
